Data on two molecules can be found in US8017649B2, “Flavonoid compounds and uses thereof” (Howard Florey Institute of Experimental Physiology and …, priority 2005, dated 2011).

“Also recorded” adds a separate entry of the source.

The subject of one data set is aortic rings. Briefly: Effect on SNP relaxation of precontracted rat aortic rings. In kind it is cell-based. The method, then: (§1) After wash out and re-equilibration for 30 min, the aortic rings were then submaximally precontracted with PE and U46619, which were used to produce an active tension of 45-60% of the KPSS-induced maximum contraction. When investigating the effects of the flavonoids, flavonol, flavone-3-hemiadipate (F3HA), 3′, 4′-dihydroxyflavone, 3′,4′-dihydroxyflavonol, 3′,4′-dihydroxyflavone-3-hemiadipate (DiOHF3HA), and flavone-3-phosphate (F3P) on vasorelaxant responses, rings were incubated with one of the compounds for 20 mins before they were precontracted submaximally, followed by a cumulative-concentration response curve to ACh (100 nM-10 μM) or SNP ([…]). In experiments using F3P 1000U/L phosphatase was used in some experiments to cleave the phosphate. Some experiments were conducted in the presence and absence of butyryl cholinesterase (BuCHE, 1000 U/L) to cleave the adipate in DiOHF3HA and F3HA.

The subject of another data set is conscious rats. Briefly: Endothelin-1-induced ischaemic stroke in conscious rats. In kind it is in vivo, rat. Conditions: for hemineglect (sticky tape) test latency / infarct in cortex / infarct in striatum: DiOHF 10 mg/kg or DiOHF3HA 15 mg/kg/day i.v.; for infarct in cortex / infarct in striatum: 72 h. The method, then: Ischaemic stroke was studied in conscious rats, with daily monitoring of neurological function and post mortem morphological assessment of cerebral infarcts at 72 hours alter stroke. Unilateral, transient cerebral ischaemia and reperfusion was induced in conscious rats by injection of the potent vasoconstrictor endothelin-1 outside but close to the right middle cerebral artery MCA, (via a pre-implanted guide tube). The ensuing stroke was graded on a scale of 0 to 5 by immediate behaviour, and potential neuroprotective compounds were injected intravenously 3 h after the stroke, and at 24 hour intervals thereafter.
Male Hooded Wistar rats (280-340 g) were anaesthetised with pentobarbitone sodium in a volume of 0.6 ml (60 mg/kg i.p.) for insertion of an intravenous (i.v.) catheter into the jugular vein for acute drug administration, A 23-gauge stainless steel guide cannula was then stereotaxically implanted into the piriform cortex 2 mm dorsal to the right MCA (0.2 mm anterior, −5.2 mm lateral and −5.9 mm ventral). The cannula was secured with dental acrylate cement and two small screws inserted into the skull. The scalp was closed with sutures. Rats were housed individually on a 12 h day/night cycle at a temperature of 18-22° C. and allowed to recover for 5 days before induction of stroke.
Vaso constriction of the right middle cerebral artery (MCA) was induced in conscious rats by administration of the potent vasoconstrictor agent endothelin-1 (ET-1) (60 pmol in 3 μl of saline over 10 min) via a 30-gauge injector that protruded 2 mm beyond the end of the previously implanted stereotaxic guide cannula. The injector was held in place by a poly-tubing cuff and the rat was placed in a clear Plexiglass box for observation during ET-1 injection. During stroke induction we observed counter-clockwise circling, clenching and dragging of the contralateral forepaw, validating the correct placement of the cannula. These behavioural changes occurred within 2 to 10 minutes of the commencement of the ET-1 injection and similar behaviours have been reported by other researchers employing this model. We have assigned a rating scale of stroke severity based on these behavioural changes during stroke and have shown that vehicle-treated rats assigned with higher stroke ratings have greater infarct volumes and neurological deficits. […] Rectal temperatures were taken with a thermistor probe, prior to stroke and at 30- or 60-minute intervals for 3 hours after stroke.
All behavioural tests were conducted prior to any procedures (pre-surgery, day 1), immediately prior to ET-1-induced MCA occlusion (pre-ischemia, day 6) and 24, 48 and 72 hours after ET-1-induced MCA occlusion. The behaviour of each rat was compared to pre-stroke, thus each rat acted as its own control. All rats were coded so that the investigator was blinded to treatment condition. Neurological abnormalities were evaluated with the use of a neurological deficit score based on detection of abnormal posture and hemiplegia. Abnormal pastures were assessed by suspending rats by the tail and scoring twisting of the thorax and extension of the forelimbs. Hemiplegia was evaluated when rats were placed on a raised platform. Deficits were deemed to be present when the hind limb contralateral to the infarcted hemisphere slipped off the edge of the platform and/or when the contralateral forelimb slipped off when the snout and whiskers were not in contact with the surface. All behaviours were scored on the following scale: 0=no deficit; 1=slight; 2=moderate; and 3=severe. Thus, when scores were totalled the maximum neurological deficit score was 12. A score of 0 was considered normal.
Sensory hemi-neglect was evaluated using a test consisting of placing adhesive tapes (Avery adhesive label, […] circles) on the distal-radial region of each wrist, Placement of the first tape was randomised between contralateral and ipsilateral limbs. […]

A further data set has as its system anaesthetised rats. Put plainly: Arterial pressure and heart rate in anaesthetised rats after intravenous injection. In kind it is in vivo, rat. The settings on record: for change in heart rate (HR) / change in mean arterial pressure (MAP): intravenous, anaesthetised rats. How it is done: A unit dosage of an aqueous solution of 3-hydroxyflavone-3-hemiadipate (15) was administered to a group of male anesthetized Sprague Dawley rats intravenously and the blood pressure monitored over a period of time.
Male Sprague-Dawley rats (250-350 g) were anaesthetised with pentobarbitone sodium (60 mg kg^−1, ip). The trachea was isolated and cannulated with polyethylene tracheal tube (I.D. 2.0 mm), and the rat was allowed to breathe spontaneously.
The right carotid artery was cannulated and connected with a heparinised saline filled cannula (O.D. 0.75, I.D, 0.58 mm) and connected to a pressure transducer. Mean and phasic arterial pressure were continuously measured and recorded on a polygraph. The heart rate, was derived from the phasic arterial pressure using a tachometer.
DiOHF3HA ([…]) was injected intravenously, allowing at least 30 min between injections, and the peak changes in mean arterial pressure and heart rate measured. […] In a separate group of experiments ACh (0.3 mg/kg iv) and phenylephrine (PE, […]) were injected before and 30 minutes after DiOHF3HA (3 mg/kg iv), a time when arterial pressure and heart rate had returned to control levels. […]

Data set [1] relates to endothelium intact aortic rings. Put plainly: Effect on ACh relaxation of precontracted rat aortic rings. It is filed as cell-based. The settings on record: substance alone. How it is done: as §1
A short description of data set [2]: Solubility in aqueous solution. In kind it is physicochemical. Conditions: water.
A further data set deals with anaesthetised sheep. Put plainly: Myocardial ischaemia and reperfusion injury in anaesthetised sheep. In kind it is in vivo. Conditions: higher dose: DiOHF3HA 6.7 mg/kg, DiOHF 5 mg/kg i.v.; 1 h ischaemia, 3 h reperfusion.
For a further data set, the system named is rat aortic rings. Briefly: Relaxation of rat aortic rings in response to A23187 or isoprenaline. It is filed as cell-based. Conditions: 0.1 mM, absence or presence of cholinesterase.
The test system of data set [3] is myocardial ischaemia and reperfusion. The settings on record: Wang et al., British Journal of Pharmacology (2004) 142, 443-452; cited from earlier work.
The mark [4] stands for this setting: all stroke grades (2-4), DiOHF3HA 15 mg/kg/day.
Setting [5] is: mild to moderate strokes, DiOHF 10 mg/kg or DiOHF3HA 15 mg/kg/day i.v. from 3 h post-stroke.
Setting [6] is: 30 min after DiOHF3HA 3 mg/kg iv.

With `O=C(O)CCCCC(=O)Oc1c(-c2ccc(O)c(O)c2)oc2ccccc2c1=O` [DiOHF3HA, 3′,4′-dihydroxyflavone-3-hemiadipate], the “effect on relaxant response to SNP” value in the data set with aortic rings (in the presence of BuCHE or phosphatase) is recorded as “significantly increased the sensitivity of the relaxant response to SNP”. For the same molecule, in the data set with aortic rings (substance alone), the “effect on relaxant response to SNP” value was “no effect on relaxant responses to ACh or SNP”. Moreover, in the data set with conscious rats (all stroke grades (2-4), DiOHF3HA 15 mg/kg), the “area of damage in the striatum” value is on record as “reduced the area of damage in the striatum”. Also, the “infarct area through the cortex” value in the data set on conscious rats (all stroke grades (2-4), DiOHF3HA 15 mg/kg i.v.) is listed as “significantly reduced”. For the same molecule, in the data set with conscious rats (setting [4]), the “body weight following stroke” value was “no significant weight loss”, the “core temperature following intravenous injection” value was “not significantly different from pre-stroke temperature” and the “hemineglect (sticky label) test latency” value was “abolished; also recorded: significantly improved neurological function in the hemineglect test”. The neurological deficit score result in the data set with conscious rats (all stroke grades (2-4), DiOHF3HA 15 mg/kg/day, 24, 48 or 72 hours) is reported as “measurably improved neurological deficit scores”. In the data set with conscious rats (mild to moderate strokes), the “hemineglect (sticky tape) test latency” value is reported as “abolished; also recorded: significantly restored neurological function in the hemineglect test”, the infarct in cortex entry was “significantly reduced” and the infarct in striatum entry is “significantly reduced the area of infarct through the striatum”. Moreover, the neurological deficit score result in the data set on conscious rats (setting [5]) is listed as “no effect on neurological deficit scores”. For the same molecule, the “body weight following stroke” value with conscious rats (mild to moderate strokes, DiOHF3HA 15 mg/kg/day) is “did not lose weight”. For the same molecule, in the data set on anaesthetised rats (setting [6]), the “PE-induced increase in arterial pressure” value is recorded as “diminished; also recorded: attenuated the PE-induced increase in arterial pressure” and the “depressor response to ACh” value is “significantly enhanced the depressor response to ACh”. In addition, in the data set on anaesthetised rats, the “change in heart rate (HR)” value is given as “dose-dependent decrease in HR; also recorded: dose-dependent decreases; also recorded: concentration dependent decreases” and the “change in mean arterial pressure (MAP)” value is on record as “dose-dependent decrease in MAP; also recorded: dose-dependent decreases; also recorded: concentration dependent decreases”. The “effect on relaxant response to ACh” value in data set [1] is reported as “no effect on relaxant responses to ACh or SNP”. In data set [2], the “solubility in aqueous solution” value was “soluble in aqueous solution, particularly water”. Further, the “infarct size normalized to the area at risk (IS/AR)” value in the data set with anaesthetised sheep was determined as 49±8%. Further, the “relaxation in response to A23187 or isoprenaline” value in the data set with rat aortic rings is on record as “no effect on endothelium-dependent relaxation”.
Turning to `O=c1c(O)c(-c2ccc(O)c(O)c2)oc2ccccc12` [DiOHF, 3′,4′-Dihydroxyflavonol, reference compound], the “infarct and injury associated with myocardial ischaemia and reperfusion” value in data set [3] was “reduce Infarct and injury associated with myocardial ischaemia and reperfusion”. In addition, in the data set on conscious rats (mild to moderate strokes), the “hemineglect (sticky tape) test latency” value is recorded as “abolished the increase in hemineglect scores”, the infarct in cortex entry is “reduced the volume of infarct produced in the cerebral cortex; also recorded: significantly reduced the area of infarct” and the infarct in striatum result is recorded as “completely prevented an infarct developing in the striatum; also recorded: significantly reduced the area of infarct”. Moreover, the neurological deficit score entry in the data set with conscious rats (setting [5]) was “reduced the neurological deficits at 48 and 72 h; also recorded: significantly improved neurological outcome”. In addition, in the data set with anaesthetised rats, the “change in heart rate (HR)” value is “dose-dependent decrease in HR” and the “change in mean arterial pressure (MAP)” value is “dose-dependent decreases in MAP”. Further, in the data set with anaesthetised sheep, the “infarct size normalized to the area at risk (IS/AR)” value came out at 47±8%.
